By Km is commonly meant the substrate concentration at which the rate is half of its maximum.

Data on one compound can be found in article PMC5094572, “A β‐mannan utilization locus in Bacteroides ovatus involves a GH36 α‐galactosidase active on galactomannans” (Febs Letters, 2016).

The test system of the test is T1, BoGal36A.
T1 construct: gene Bacova_02091; predicted signal peptide removed, C-terminal His6 tag kept, pET28b+, E. coli BL21(DE3); tetramer (SEC 290 kDa)
As to the kind of experiment: continuous assay, p-nitrophenol release at […] nm, Michaelis-Menten fit. Type of test: biochemical, Bacteroides ovatus. The note with it: pH 6.0, 37 °C; 50 mM sodium citrate; 0.1-5 mM substrate.

On to `O=[N+]([O-])c1ccc(O[C@H]2O[C@H](CO)[C@H](O)[C@H](O)[C@H]2O)cc1` [pNP-α-gal], for which the Michaelis-Menten constant (Km) stood at 132 ± 20 µM.
